Values quoted from earlier work as cited in US20100021879A1, “COMPOSITIONS AND METHODS FOR PRESERVING RED BLOOD CELLS” (THE REGENTS OF THE UNIVERSITY OF MICHIGAN, priority 2007, published 2010).

Columns and labels:
erythrocyte = conditions: prior to hemolysis

## OCl [hypochlorous acid]
erythrocyte
  K leak: increase in K leak
  erythrocyte deformability evidenced by ektacytometry: changes in erythrocyte deformability

## CC[N+](CC)(CC)CC [TEA]
Red blood cells
  red blood cell deformability: increased deformability
